This test deals with recombinant human SAE enzyme (Homo sapiens (Human), UniProt Q9UBT2). Put plainly: SAE HTRF enzyme assay. The conditions noted are these: for inhibition at 0.111 µM: Concentration 0.111 μM, read-out: Percent Inhibition; for IC50: class symbols A/B/C. The test is classed as biochemical. The method in brief: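 Human SAE (0.11 nM) with 0.5 μM ATP, 0.125 μM Sumo-Flag and 0.01 μM Ubc9-GST in HEPES pH 7.5, 5 mM MgCl2, 250 μM GSH; 105 min at 24 °C. Stopped with EDTA; HTRF read after 2 h with Eu-anti-Flag and APC-anti-GST. Percent inhibition or IC50 reported.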
Chain of recombinant human SAE enzyme (Q9UBT2 whole entry): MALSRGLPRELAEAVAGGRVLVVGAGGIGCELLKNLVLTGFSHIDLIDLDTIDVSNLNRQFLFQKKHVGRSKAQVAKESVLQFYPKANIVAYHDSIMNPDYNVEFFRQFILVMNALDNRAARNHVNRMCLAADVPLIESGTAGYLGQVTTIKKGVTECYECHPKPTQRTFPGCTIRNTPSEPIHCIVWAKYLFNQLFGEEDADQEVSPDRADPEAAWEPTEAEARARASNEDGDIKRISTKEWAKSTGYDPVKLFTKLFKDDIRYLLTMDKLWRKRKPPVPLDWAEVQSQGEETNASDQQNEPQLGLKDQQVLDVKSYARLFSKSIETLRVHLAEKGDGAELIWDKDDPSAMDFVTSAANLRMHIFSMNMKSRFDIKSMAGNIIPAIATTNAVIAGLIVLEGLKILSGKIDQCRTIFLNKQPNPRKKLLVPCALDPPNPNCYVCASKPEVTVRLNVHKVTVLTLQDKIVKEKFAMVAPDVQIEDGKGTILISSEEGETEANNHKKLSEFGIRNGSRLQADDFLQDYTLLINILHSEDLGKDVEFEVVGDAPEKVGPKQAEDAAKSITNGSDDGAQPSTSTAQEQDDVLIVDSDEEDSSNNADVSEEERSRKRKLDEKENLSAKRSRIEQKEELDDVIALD
Chain of recombinant human SAE enzyme (Q9UBE0 whole entry partner): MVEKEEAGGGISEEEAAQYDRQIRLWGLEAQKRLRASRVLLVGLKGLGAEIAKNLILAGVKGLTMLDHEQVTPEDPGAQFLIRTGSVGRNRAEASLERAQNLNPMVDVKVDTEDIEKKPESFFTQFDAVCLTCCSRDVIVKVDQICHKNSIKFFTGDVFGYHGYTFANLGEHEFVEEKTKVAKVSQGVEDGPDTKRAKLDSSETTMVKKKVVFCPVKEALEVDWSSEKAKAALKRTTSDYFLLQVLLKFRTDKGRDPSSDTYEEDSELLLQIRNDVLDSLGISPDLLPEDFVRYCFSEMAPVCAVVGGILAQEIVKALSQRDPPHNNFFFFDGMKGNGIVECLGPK

These results are taken from US10780090B2, “Heteroaryl compounds useful as inhibitors of SUMO activating enzyme” (Millennium Pharmaceuticals, Inc., priority 2014, dated 2020).

Turning to `NS(=O)(=O)OC[C@H]1C[C@@H](Nc2ncncc2C(=O)c2cc(Cc3cccc(I)c3)cs2)[C@@H](F)[C@@H]1O` [I-99, {(1R,2R,3R,4R)-3-fluoro-2-hydroxy-4-[(5-{[4-(3-iodobenzyl)-2-thienyl]carbonyl}pyrimidin-4-yl)amino]cyclopentyl}methyl sulfamate], the inhibition at 0.111 µM stood at 97% and the IC50 is less than 10 nM.
Taken in the same sequence, the figures for `C=C(c1cccc(Cl)c1)c1cc(C(=O)c2cncnc2N[C@@H]2C[C@H](COS(N)(=O)=O)[C@@H](O)C2)sc1C` [I-100, [(1R,2S,4R)-4-{[5-({4-[1-(3-Chlorophenyl)vinyl]-5-methyl-2-thienyl}carbonyl)pyrimidin-4-yl]amino}-2-hydroxycyclopentyl]methyl sulfamate] were 97% and less than 10 nM.
As for `NS(=O)(=O)OC[C@H]1C[C@@H](Nc2ncncc2C(=O)c2cc(Cc3cccc(Br)c3)cs2)[C@@H](F)[C@@H]1O` [I-101, {(1R,2R,3R,4R)-4-[(5-{[4-(3-bromobenzyl)-2-thienyl]carbonyl}pyrimidin-4-yl)amino]-3-fluoro-2-hydroxycyclopentyl}methyl sulfamate], the inhibition at 0.111 µM worked out at 96% and the IC50 was less than 10 nM.
Taken in the same sequence, the figures for `NS(=O)(=O)OC[C@H]1C[C@@H](Nc2ncncc2C(=O)c2cc(Cc3ccc(Cl)c(Cl)c3)cs2)C[C@@H]1O` [I-104, {(1R,2S,4R)-4-[(5-{[4-(3,4-Dichlorobenzyl)-2-thienyl]carbonyl}pyrimidin-4-yl)amino]-2-hydroxycyclopentyl)methyl sulfamate] were 97% and less than 10 nM.
On the same counts, the results for `Cc1cn(Cc2csc(C(=O)c3cncnc3N[C@@H]3C[C@H](COS(N)(=O)=O)[C@@H](O)C3)c2)c2ccccc12` [I-105, [(1R,2S,4R)-2-Hydroxy-4-{[5-({4-[(3-methyl-1H-indol-1-yl)methyl]-2-thienyl}carbonyl)pyrimidin-4-yl]amino}cyclopentyl]methyl sulfamate] are 96% and less than 10 nM.
Taken in the same sequence, the figures for `NS(=O)(=O)OC[C@H]1C[C@@H](Nc2ncncc2C(=O)c2cc(Cc3cccc(Cl)c3)c(Cl)s2)C[C@@H]1O` [I-107, {(1R,2S,4R)-4-[(5-{[5-chloro-4-(3-chlorobenzyl)-2-thienyl]carbonyl}pyrimidin-4-yl)amino]-2-hydroxycyclopentyl}methyl sulfamate] were 96% and less than 10 nM.
With `NS(=O)(=O)OC[C@H]1C[C@@H](Nc2ncncc2C(=O)c2cc(CCc3ccccc3)cs2)C[C@@H]1O` [I-108, {(1R,2S,4R)-2-Hydroxy-4-[(5-{[4-(2-phenylethyl)-2-thenyl]carbonyl}pyrimidin-4-yl)amino]cyclopentyl}methyl sulfamate], the inhibition at 0.111 µM came to 96%.
Take `Cc1sc(C(=O)c2cncnc2N[C@@H]2C[C@H](COS(N)(=O)=O)[C@@H](O)C2)cc1Cn1cccn1` [I-109, {(1R,2S,4R)-2-Hydroxy-4-[(5-{[5-methyl-4-(1H-pyrazol-1-ylmethyl)-2-thienyl]carbonyl}pyrimidin-4-yl)amino]cyclopentyl)methyl sulfamate]: the inhibition at 0.111 µM came to 96% and the IC50 is less than 10 nM.
On the same counts, the results for `NS(=O)(=O)OC[C@H]1C[C@@H](Nc2ncncc2C(=O)c2cc(Cc3cccc(Cl)c3)c(CC3CCOCC3)s2)C[C@@H]1O` [I-110, {(1R,2S,4R)-4-[(5-{[4-(3-chlorobenzyl)-5-(tetrahydro-2H-pyran-4-ylmethyl)-2-thienyl]carbonyl}pyrimidin-4-yl)amino]-2-hydroxycyclopentyl}methyl sulfamate] are 98% and less than 10 nM.
Taken in the same sequence, the figures for `CCc1cccc(Cc2cc(C(=O)c3cncnc3N[C@@H]3C[C@H](COS(N)(=O)=O)[C@@H](O)C3)sc2C)c1` [I-111, {(1R,2S,4R)-4-[(5-{[4-(3-ethylbenzyl)-5-methyl-2-thienyl]carbonyl}pyrimidin-4-yl)amino]-2-hydroxycyclopentyl}methyl sulfamate] were 98% and less than 10 nM.
As for `NS(=O)(=O)OC[C@H]1C[C@@H](Nc2ncncc2C(=O)c2cc(Cc3cccc(Br)c3)c(Cl)s2)C[C@@H]1O` [I-112, {(1R,2S,4R)-4-[(5-{[4-(3-bromobenzyl)-5-chloro-2-thienyl]carbonyl}pyrimidin-4-yl)amino]-2-hydroxycyclopentyl}methyl sulfamate], the inhibition at 0.111 µM worked out at 97%.
Take `NS(=O)(=O)OC[C@H]1C[C@@H](Nc2ncncc2C(=O)c2cc(Cc3cccc(OC(F)F)c3)cs2)C[C@@H]1O` [I-113, [(1R,2S,4R)-4-{[5-({4-[3-(difluoromethoxy)benzyl]-2-thienyl}carbonyl)pyrimidin-4-yl]amino}-2-hydroxycyclopentyl]methyl sulfamate]: the inhibition at 0.111 µM was 97% and the half-maximal inhibitory concentration (IC50) was less than 10 nM.
Taken in the same sequence, the figures for `NS(=O)(=O)OC[C@H]1C[C@@H](Nc2ncncc2C(=O)c2cc(Cn3ccc4ccccc43)cs2)C[C@@H]1O` [I-114, {(1R,2S,4R)-2-hydroxy-4-[(5-{[4-(1H-indol-1-ylmethyl)-2-thienyl]carbonyl}pyrimidin-4-yl)amino]cyclopentyl}methyl sulfamate] were 97% and less than 10 nM.
Regarding `NS(=O)(=O)OC[C@H]1C[C@@H](Nc2ncncc2C(=O)c2ccc(Cc3ccccc3)s2)[C@H](O)[C@@H]1O` [I-115, [(1R,2R,3S,4R)-4-({5-[(5-benzyl-2-thienyl)carbonyl]pyrimidin-4-yl}amino)-2,3-dihydroxycyclopentyl]methyl sulfamate], the inhibition at 0.111 µM amounted to 90%.
In the case of `NS(=O)(=O)OC[C@H]1C[C@@H](Nc2ncncc2C(=O)c2cc(Cc3cccc(Cl)c3)c(Br)s2)C[C@@H]1O` [I-118, {(1R,2S,4R)-4-[(5-{[5-bromo-4-(3-chlorobenzyl)-2-thienyl]carbonyl}pyrimidin-4-yl)amino]-2-hydroxycyclopentyl}methyl sulfamate], the inhibition at 0.111 µM came out at 97% and the IC50 is less than 10 nM.
On the same counts, the results for `NS(=O)(=O)OC[C@H]1C[C@@H](Nc2ncncc2C(=O)c2cc(Cc3ccc(C(F)(F)F)o3)cs2)C[C@@H]1O` [I-119, [(1R,2S,4R)-2-Hydroxy-4-{(5-[(4-{[5-(trifluoromethyl)-2-furyl]methyl}-2-thienyl)carbonyl]pyrimidin-4-yl}amino)cyclopentyl]methyl sulfamate] are 96% and less than 10 nM.
On to `NS(=O)(=O)OC[C@H]1C[C@@H](Nc2ncncc2C(=O)c2cc(COc3cccc(Cl)c3)cs2)C[C@@H]1O` [I-120, [(1R,2S,4R)-4-{[5-({4-[(3-chlorophenoxy)methyl]-2-thienyl}carbonyl)pyrimidin-4-yl]amino}-2-hydroxycyclopentyl]methyl sulfamate], for which the inhibition at 0.111 µM is 97% and the IC50 was less than 10 nM.
For `COc1cccc(Cc2csc(C(=O)c3cncnc3N[C@@H]3C[C@H](COS(N)(=O)=O)[C@@H](O)C3)c2)c1` [I-123, {(1R,2S,4R)-2-hydroxy-4-[(5-{[4-(3-methoxybenzyl)-2-thienyl]carbonyl}pyrimidin-4-yl)amino]cyclopentyl}methyl sulfamate], the inhibition at 0.111 µM was 96% and the IC50 is less than 10 nM.
Taken in the same sequence, the figures for `N#Cc1ccccc1OCc1csc(C(=O)c2cncnc2N[C@@H]2C[C@H](COS(N)(=O)=O)[C@@H](O)C2)c1` [I-124, [(1R,2S,4R)-4-{[5-({4-[(2-cyanophenoxy)methyl]-2-thienyl}carbonyl)pyrimidin-4-yl]amino}-2-hydroxycyclopentyl]methyl sulfamate] were 97% and less than 10 nM.
On the same counts, the results for `NS(=O)(=O)OC[C@H]1C[C@@H](Nc2ncncc2C(=O)c2cc(Cn3ccc4ccc(Cl)cc43)cs2)C[C@@H]1O` [I-125, [(1R,2S,4R)-4-{[5-({4-[(6-chloro-1H-indol-1-yl)methyl]-2-thienyl}carbonyl)pyrimidin-4-yl]amino}-2-hydroxycyclopentyl]methyl sulfamate] are 97% and less than 10 nM.
For the molecule `COc1ccc2c(c1)N(Cc1cc(C(=O)c3cncnc3N[C@@H]3C[C@H](COS(N)(=O)=O)[C@@H](O)C3)sc1C)CC2` [I-126, [(1R,2S,4R)-2-hydroxy-4-{[5-({4-[(6-methoxy-2,3-dihydro-1H-indol-1-yl)methyl]-5-methyl-2-thienyl}carbonyl)pyrimidin-4-yl]amino}cyclopentyl]methyl sulfamate], the inhibition at 0.111 µM stood at 98% and the IC50 is less than 10 nM.
As for `NS(=O)(=O)OC[C@H]1C[C@@H](Nc2ncncc2C(=O)c2ccc(Cc3ccccc3)o2)C[C@@H]1O` [I-127, [(1R,2S,4R)-4-{[5-(5-benzyl-2-furoyl)pyrimidin-4-yl]amino}-2-hydroxycyclopentyl]methyl sulfamate], the inhibition at 0.111 µM was determined as 95% and the concentration for half-maximal inhibition (IC50) was less than 10 nM.
On the same counts, the results for `Cc1sc(C(=O)c2cncnc2N[C@@H]2C[C@H](COS(N)(=O)=O)[C@@H](O)C2)cc1CN1CCc2ccc(C#N)cc21` [I-128, [(1R,2S,4R)-4-{[5-({4-[(6-cyano-2,3-dihydro-1H-indol-1-yl)methyl]-5-methyl-2-thienyl}carbonyl)pyrimidin-4-yl]amino}-2-hydroxycyclopentyl]methyl sulfamate] are 95% and less than 10 nM.
Taken in the same sequence, the figures for `NS(=O)(=O)OC[C@H]1C[C@@H](Nc2ncncc2C(=O)c2cc(COc3ccccc3Cl)cs2)C[C@@H]1O` [I-129, [(1R,2S,4R)-4-{[5-({4-[(2-chlorophenoxy)methyl]-2-thienyl}carbonyl)pyrimidin-4-yl]amino}-2-hydroxycyclopentyl]methyl sulfamate] were 95% and less than 10 nM.
